Reference: US10597366B2, “Aryl ethers and uses thereof” (Peloton Therapeutics, Inc., priority 2013, dated 2020)

Key:
[1] = test system: HIF-2α HIS TAG-PASB Domain; assay: HIF-2α Scintillation Proximity Assay (SPA); assay type: binding; settings: compounds listed by structure and IUPAC name
Description: The percent inhibition was determined and IC50 values were calculated using the Dotmatics system based on the following equation: % inhibition=[(high control sample)/(high control low control)]×100.

[2] = test system: 786-O-Hif-Luc cells (luciferase gene driven by multiple HIF responsive elements); assay: Luciferase Assay; assay type: cell-based; settings: 24 h, 786-O-Hif-Luc cells, about 24 hours; read-out: Mean Luciferease EC50
Description: A pool of infected cells were then selected against 2 μg/mL of puromycin (P8833, Sigma) for 10 days followed by limited dilution to select single clones.
Each concentration was tested in triplicate. After about 24 hours, luciferase activity was determined using ONE-Glo Luciferase Assay Reagent (E6110, Promega) following the manufacturer's recommended procedure. EC50 were calculated by using Dotmatics software.

IC50 [1] [µM]	EC50 [2] [µM]	SMILES
> 100		CC(C)(C)[S+]([O-])NC1c2c(S(C)(=O)=O)ccc(Oc3cc(F)cc(C#N)c3)c2CC1(F)F (stereo not shown) [N-[4-(3-cyano-5-fluoro-phenoxy)-2,2-difluoro-7-methylsulfonyl-indan-1-yl]-2-methyl-propane-2-sulfinamide]
> 100		N#Cc1cccc(Oc2ccc(C(F)(F)F)c(Cl)c2N)c1 [3-[2-amino-3-chloro-4-(trifluoromethyl)phenoxy]benzonitrile]
> 100		Cc1c(Oc2cc(F)cc(C#N)c2)ccc(S(=O)(=O)C(F)(F)F)c1/C=C/C(N)=O [(E)-3-[3-(3-cyano-5-fluoro-phenoxy)-2-methyl-6-(trifluoromethylsulfonyl)phenyl]prop-2-enamide]
> 100		Cc1c(Oc2cc(F)cc(C#N)c2)ccc(S(=O)(=O)C(F)(F)F)c1C(O)CO (stereo not shown) [3-[3-(1,2-dihydroxyethyl)-2-methyl-4-(trifluoromethylsulfonyl)phenoxy]-5-fluoro-benzonitrile]
> 100		NS(=O)(=O)c1cccc(Oc2cc(F)cc(Cl)c2)c1[N+](=O)[O-] [3-(3-chloro-5-fluoro-phenoxy)-2-nitro-benzenesulfonamide]
> 100		O=C(O)c1cc(S(=O)(=O)C(F)(F)F)ccc1Oc1cc(F)cc(Cl)c1 [2-(3-chloro-5-fluorophenoxy)-5-((trifluoromethyl)sulfonyl)benzoic acid]
> 100		O=C(O)c1c(S(=O)(=O)C(F)F)ccc(Oc2cc(F)cc(Cl)c2)c1Br [2-bromo-3-(3-chloro-5-fluoro-phenoxy)-6-(difluoromethylsulfonyl)benzoic acid]
> 100		NC(=O)c1cc(F)cc(Oc2ccc(S(=O)(=O)C(F)(F)F)cc2Br)c1 [3-[2-bromo-4-(trifluoromethylsulfonyl)phenoxy]-5-fluoro-benzamide]
> 100		Cc1c(Oc2cc(F)cc(C#N)c2)ccc(S(=O)(=O)C(F)(F)F)c1/C=C/C(=O)OCc1ccccc1 [benzyl (E)-3-[3-(3-cyano-5-fluoro-phenoxy)-2-methyl-6-(trifluoromethylsulfonyl)phenyl]prop-2-enoate]
> 100		CNc1c(S(=O)(=O)C(F)(F)F)ccc(Oc2cc(F)cc(Cl)c2)c1C#N [6-(3-chloro-5-fluoro-phenoxy)-2-(methylamino)-3-(trifluoromethylsulfonyl)benzonitrile]
> 100		CNC(=O)/C=C/c1c(S(=O)(=O)C(F)(F)F)ccc(Oc2cc(F)cc(C#N)c2)c1C [(E)-3-[3-(3-cyano-5-fluoro-phenoxy)-2-methyl-6-(trifluoromethylsulfonyl)phenyl]-N-methyl-prop-2-enamide]
> 100		O=S(=O)(c1ccc(Oc2cc(F)cc(Cl)c2)c2c1C1(CC2)OCCO1)C(F)F [4′-(3-chloro-5-fluoro-phenoxy)-7′-(difluoromethylsulfonyl]spiro[1,3-dioxolane-2,1′-indane]]
> 100		N=S(=O)(c1ccc(Cl)c(Br)c1Oc1cc(F)cc(Cl)c1)C(F)(F)F (stereo not shown) [[3-bromo-4-chloro-2-(3-chloro-5-fluoro-phenoxy)phenyl]-imino-oxo-(trifluoromethyl)-λ^6-sulfane]
> 100		CC(=O)c1ccc(Oc2cc(F)cc(Cl)c2)c(Br)c1C#N [6-acetyl-2-bromo-3-(3-chloro-5-fluoro-phenoxy)benzonitrile]
> 100		CCCCOC(=O)/C=C/c1c(S(=O)(=O)C(F)(F)F)ccc(Oc2cc(F)cc(C#N)c2)c1C [butyl (E)-3-[3-(3-cyano-5-fluoro-phenoxy)-2-methyl-6-(trifluoromethylsulfonyl)phenyl]prop-2-enoate]
> 100		N#Cc1cc(F)cc(Oc2ccc(S(=O)(=O)C(F)(F)F)c3c2C[C@@H](F)[C@@H]3N)c1 [3-[(1R,2R)-1-amino-2-fluoro-7-(trifluoromethylsulfonyl)indan-4-yl]oxy-5-fluoro-benzonitrile]
> 100		N#Cc1cccc(Oc2ccc(S(=O)(=O)C(F)F)c3cccnc23)c1 [3-[[5-(difluoromethylsulfonyl)-8-quinolyl]oxy]benzonitrile]
> 100		Cc1cc(S(C)(=O)=O)c2c(c1Oc1cc(F)cc(C#N)c1)CCC2O (stereo not shown) [3-fluoro-5-(1-hydroxy-5-methyl-7-methylsulfonyl-indan-4-yl)oxy-benzonitrile]
> 100		O=C(NO)c1c(S(=O)(=O)C(F)F)ccc(Oc2cc(F)cc(Cl)c2)c1Br [2-bromo-3-(3-chloro-5-fluoro-phenoxy)-6-(difluoromethylsulfonyl)benzenecarbohydroxamic acid]
> 100		C[C@H]1Cc2c(Oc3cc(F)cc(C#N)c3)ccc(S(C)(=O)=O)c2[C@H]1O [3-fluoro-5-(((1S,2S)-1-hydroxy-2-methyl-7-(methylsulfonyl)-2,3-dihydro-1H-inden-4-yl)oxy)benzonitrile]
> 100		Cn1cc(Oc2ccc(S(=O)(=O)C(F)(F)F)c3c2CCC3O)cn1 (stereo not shown) [4-(1-methylpyrazol-4-yl)oxy-7-(trifluoromethylsulfonyl)indan-1-ol]
> 100		OC1CCc2c(Oc3cc(F)cc(Cl)c3)cccc21 (stereo not shown) [4-(3-chloro-5-fluoro-phenoxy)indan-1-ol]

IC50 [1] [µM]	EC50 [2] [µM]	SMILES
> 100		CSc1ccc(Oc2cc(F)cc(C#N)c2)c2c1C(=O)CC2 [3-fluoro-5-(7-methylsulfanyl-1-oxo-indan-4-yl)oxy-benzonitrile]
> 100		CS(=O)(=O)c1ccc(Oc2cc(C#N)cc(Oc3ccc(S(C)(=O)=O)c4c3CC(F)(F)[C@H]4O)c2)c2c1[C@H](O)C(F)(F)C2 [3,5-bis[[(1S)-2,2-difluoro-1-hydroxy-7-methylsulfonyl-indan-4-yl]oxy]benzonitrile]
> 100		CC(=O)NC1c2c(S(C)(=O)=O)ccc(Oc3cc(F)cc(F)c3)c2CC1(F)F (stereo not shown) [N-[4-(3,5-difluorophenoxy)-2,2-difluoro-7-methylsulfonyl-indan-1-yl]acetamide]
> 100		CN(C)Cc1c(S(=O)(=O)C(F)F)ccc(Oc2cc(F)cc(Cl)c2)c1Cl [1-[2-chloro-3-(3-chloro-5-fluoro-phenoxy)-6-(difluoromethylsulfonyl)phenyl]-N,N-dimethyl-methanamine]
> 100		NC(=O)c1c(S(=O)(=O)C(F)F)ccc(Oc2cc(F)cc(Cl)c2)c1Br [2-bromo-3-(3-chloro-5-fluoro-phenoxy)-6-(difluoromethylsulfonyl)benzamide]
> 100		O=C(O)c1cc(F)cc(Oc2ccc(S(=O)(=O)C(F)(F)F)cc2Br)c1 [3-[2-bromo-4-(trifluoromethylsulfonyl)phenoxy]-5-fluoro-benzoic acid]
> 100		O=C1CCc2c(Oc3cc(F)cc(Cl)c3)cccc21 [4-(3-chloro-5-fluoro-phenoxy)indan-1-one]
> 100		Cc1cc(Oc2cc(F)cc(C#N)c2)c2c(c1S(C)(=O)=O)C(O)CC2 (stereo not shown) [3-fluoro-5-(1-hydroxy-6-methyl-7-methylsulfonyl-indan-4-yl)oxy-benzonitrile]
> 100		O=[N+]([O-])c1c(F)cccc1Oc1cccc(Cl)c1 [1-(3-chlorophenoxy)-3-fluoro-2-nitro-benzene]
> 100		N#Cc1cc(F)cc(Oc2ccc(Cl)c3c2CCC3)c1 [3-(7-chloroindan-4-yl)oxy-5-fluoro-benzonitrile]
> 100		O=S(=O)(c1ccc(Oc2cc(F)cc(Cl)c2)c(Cl)c1CNC1CCOC1)C(F)F (stereo not shown) [N-[[2-chloro-3-(3-chloro-5-fluoro-phenoxy)-6-(difluoromethylsulfonyl)phenyl]methyl]tetra-hydrofuran-3-amine]
> 100		N#Cc1cc(F)cc(Oc2ccc(/S(CF)=N/C(=O)C(F)(F)F)c3c2CC[C@H]3O)c1 (stereo partly drawn) [N-((R)-7-(3-cyano-5-fluorophenoxy)-3-hydroxy-2,3-dihydro-1H-inden-4-yl)(fluoromethyl)-λ^4-sulfanylidene)-2,2,2-trifluoroacetamide]
> 100		O=S(=O)(c1ccc(Oc2cc(F)cc(Cl)c2)c(Cl)c1CNCC1CCOC1)C(F)F (stereo not shown) [1-[2-chloro-3-(3-chloro-5-fluoro-phenoxy)-6-(difluoromethylsulfonyl)phenyl]-N-(tetrahydrofuran-3-ylmethyl)methanamine]
> 100		CS(=O)(=O)c1ccc(Oc2cc(F)cc(F)c2)c2c1C(C#N)CC2 (stereo not shown) [4-(3,5-difluorophenoxy)-7-methylsulfonyl-indane-1-carbonitrile]
> 100		CN(C)[S+]([O-])c1ccc(Oc2cc(F)cc(Cl)c2)c(Br)c1 (stereo not shown) [3-bromo-4-(3-chloro-5-fluoro-phenoxy)-N,N-dimethyl-benzenesulfinamide]
> 100		O=S(=O)(c1ccc(Oc2cccn3cnnc23)c2c1[C@H](O)CC2)C(F)(F)F [(1R)-4-([1,2,4]triazolo[4,3-a]pyridin-8-yloxy)-7-(trifluoromethylsulfonyl)indan-1-ol]
> 100		Cc1ccccc1Oc1ccc(S(=O)(=O)C(F)(F)F)cc1Br [2-bromo-1-(2-methylphenoxy)-4-(trifluoromethylsulfonyl)benzene]
> 100		O=C(NCCO)c1c(S(=O)(=O)C(F)F)ccc(Oc2cc(F)cc(Cl)c2)c1C(F)F [3-(3-chloro-5-fluoro-phenoxy)-2-(difluoromethyl)-6-(difluoromethylsulfonyl)-N-(2-hydroxyethyl)benzamide]
	4	O=C1c2c(S(=O)(=O)C(F)F)ccc(Oc3cncc(Cl)c3)c2CC1(F)F [Compound 182, 4-((5-Chloropyridin-3-yl)oxy)-7-((difluoromethyl)sulfonyl)-2,2-difluoro-2,3-dihydro-1H-inden-1-one]
	8.1	O=S(=O)(c1ccc(Oc2cc(F)cc(Cl)c2)c(Cl)c1CCl)C(F)F [Compound 46, 2-Chloro-1-(3-chloro-5-fluorophenoxy)-3-(chloromethyl)-4-((difluoromethyl)sulfonyl)benzene]
	1.29	O=S(=O)(c1ccc(Oc2cc(F)cc(F)c2)c2c1CC(O)C2)C(F)F (stereo not shown) [Compound 22, 4-((Difluoromethyl)sulfonyl)-7-(3,5-difluorophenoxy)-2,3-dihydro-1H-inden-2-ol]
